What was measured:
[1] = in ethanol, reference; cited from earlier work
[2] = Triplet lifetimes by nanosecond laser flash photolysis, excitation at 355 nm; format: physicochemical; conditions: triplet lifetime in aerated ethanol
[3] = test system: HT-29 (human colon carcinoma) cells; assay: In vitro phototoxicity, resazurin cell viability after irradiation at 749 nm; format: cell-based; conditions: light dose 1 J/cm^2 at 749 nm, 24 h incubation
[4] = Absorption spectra / molar absorption coefficients (Beer-Lambert) in ethanol; format: physicochemical; conditions: for ε/10^3: infrared absorption maximum
[5] = test system: CT26 (mouse colon carcinoma) cells; assay: In vitro phototoxicity, resazurin cell viability after irradiation at 749 nm; format: cell-based
[6] = photodecomposition quantum yield, aerated methanol:PBS (3:2), 749 nm, 640 mW
[7] = Singlet oxygen quantum yield in ethanol (phosphorescence at 1270 nm, phenalenone reference); format: physicochemical; conditions: aerated ethanol
subcutaneous CT26 tumor = assay: Vascular-PDT of subcutaneous CT26 tumor in BALB/c mice with enriched atropisomer compositions (Example 7); format: in vivo; conditions: nominal 0.7 mg/kg i.v., 15 min later 55 J on 1.33 cm^2
[8] = light dose 1 J/cm^2 at 749 nm, extrapolated from non-linear regression curve
[9] = light dose 1 J/cm^2 at 749 nm, 24 h incubation

| SMILES | singlet oxygen quantum yield ΦΔ (literature value) [1] | τT (air) [2] [ns] | IC50 [3] [µM] | IC90 [3] [µM] | λmax [4] [nm] | ε/10^3 [4] [M^−1 cm^−1] | IC50 ([5]; light dose 1 J/cm^2, Table 1, extrapolated from non-linear regression curve) [µM] | IC50 [5, 8] [µM] | IC90 [5, 8] [µM] | ΦPD/10^−6 [6] | ΦΔ [7] | IC50 ([5]; light dose 1 J/cm^2, Table 1) [µM] | IC50 [5, 9] [µM] | long-term cures (tumor-free 60 days after the treatment) (subcutaneous CT26 tumor) | median survival time (subcutaneous CT26 tumor) [days] | median survival time shorter than with the LUZ11 sample (subcutaneous CT26 tumor) [days] | IC90 [5, 9] [µM] |
| --- | --- | --- | --- | --- | --- | --- | --- | --- | --- | --- | --- | --- | --- | --- | --- | --- | --- |
| O=C1C=Cc2cccc3cccc1c23 [phenalenone] | 0.95 | – | – | – | – | – | – | – | – | – | – | – | – | – | – | – | – |
| CNS(=O)(=O)c1ccc(F)c(-c2c3nc(c(-c4c(F)ccc(S(=O)(=O)NC)c4F)c4ccc([nH]4)c(-c4c(F)ccc(S(=O)(=O)NC)c4F)c4nc(c(-c5c(F)ccc(S(=O)(=O)NC)c5F)c5ccc2[nH]5)CC4)CC3)c1F (single isomer, unassigned) [LUZ11-A] | – | 257 ± 7 | 0.343 | 1.01 | 743 | 126 | 67.3 | 67.3 | 2830 | 15 | 0.39 | – | – | – | – | – | – |
| CNS(=O)(=O)c1ccc(F)c(-c2c3nc(c(-c4c(F)ccc(S(=O)(=O)NC)c4F)c4ccc([nH]4)c(-c4c(F)ccc(S(=O)(=O)NC)c4F)c4nc(c(-c5c(F)ccc(S(=O)(=O)NC)c5F)c5ccc2[nH]5)CC4)CC3)c1F (single isomer, unassigned) [LUZ11-B] | – | 296 ± 33 | 0.178 | 0.433 | 743 | 137 | – | – | 7.53 | 15 | 0.35 | 1.46 | 1.46 | – | – | – | – |
| CNS(=O)(=O)c1ccc(F)c(-c2c3nc(c(-c4c(F)ccc(S(=O)(=O)NC)c4F)c4ccc([nH]4)c(-c4c(F)ccc(S(=O)(=O)NC)c4F)c4nc(c(-c5c(F)ccc(S(=O)(=O)NC)c5F)c5ccc2[nH]5)CC4)CC3)c1F [sample X] | – | – | – | – | – | – | – | – | – | – | – | – | – | absence of long-term cures | 18 | 2 | – |
| CNS(=O)(=O)c1ccc(F)c(-c2c3nc(c(-c4c(F)ccc(S(=O)(=O)NC)c4F)c4ccc([nH]4)c(-c4c(F)ccc(S(=O)(=O)NC)c4F)c4nc(c(-c5c(F)ccc(S(=O)(=O)NC)c5F)c5ccc2[nH]5)CC4)CC3)c1F [LUZ11] | – | – | 0.367 | 0.588 | – | – | – | – | – | – | – | – | 0.871 | not possible to obtain long-term cures | 20 | – | 4.31 |
